From patent publication US4788206A, “Pentadieneamides” (Hoffmann-La Roche Inc., priority 1987, dated 1988)

What was measured:
[1] = system: PAF-Induced Platelet Count Decrease; test: PAF Induced Platelet Count Decrease; format: in vivo, guinea pig; details: Cavia porcellus, Platelet; 3 mg/Kg (route not given); read-out: Percent Inhib. of PAF-Induced Platelet Count Decrease, 3 mg/Kg
Experimental: PAF Induced Platelet Count Decrease
Male Hartley guinea pigs weighing between 500 and 900 grams were fed standard guinea pig chow and tap water ad libitum. PAF was solubilized in ethanol and stored as a 2 mM stock solution at -70° C. The stock solutuion of PAF was diluted to 1 pM in Tris buffer pH 7.4 and 0.1% BSA for all experiments.
(a) Intravenous Procedure
Guinea pigs were anesthetized with urethane (1.6 g/kg, i.p.). A catheter (PE50) was introduced into the right carotid artery for withdrawing blood. A second catheter PE10) was introduced into the jugular vein for injecting drugs and for administering the PAF challenge (75 ng/kg, i.v.). A control blood sample was obtained and platelets were counted in a whole blood platelet analyzer. PAF was then given and blood samples were taken 15, 30, and 60 seconds after the challenge for platelet counts. Fifteen minutes later, selected concentrations of the test compound were solubilized in DMSO and injected intravenously into a group of 4-6 animals. Only one concentration of antagonist was used in each animal group. Fifteen minutes after drug injection, blood smaples were taken before and 15, 30, and 60 sec after the PAF challenge, and analyzed for platelet number.
Animals were anesthetized with sodium pentobarbital (35 mg/kg. i.p.) and the caritoid artery and jugular vein were cannulated as described above. The cannulae were exteriorized at the base of the neck and the animals were allowed to recover. At least 18 hours after surgery, conscious unrestrained guinea pigs were used in the experiment. The animals were challenged two time with PAF (120 ng/kg. i.v.); the first to establish a consistent response to PAF and the second to serve as a control for the PAF challenge. Blood samples were taken before and 15, 30, and 45 seconds after PAF challenge and platelets were counted. Thirty minutes after the control PAF challenge, the animal were orally dosed with either gum acacia or the test compound. Animals were then challenged with PAF at 1, 3, 5, and 24 hours after the administration of the drug.
Data Analysis and Statistics
The % change, i.e., the difference in platelet number before and after PAF challenge was calculated by: [formula]
Statistical significance (p<0.05) of the difference between the mean PAF control and mean drug treated activity was determined with paried Students's t-test.

[2] = biological target: T1, PAF Binding, dog platelets (Canis lupus familiaris, UniProt A0A8I3NSH0); test: PAF Binding Assay (inhibition of 3H-PAF binding to washed dog platelets); details: dog platelets, 3H-PAF, 10 minutes at room temperature; read-out: Inhib of PAF Binding IC50
T1 construct: Washed platelets were prepared by resuspending the platelet pellet once with PBS containing 1 mM EDTA; from tissue; host or cells: washed platelets from dog blood
T1 sequence (A0A8I3NSH0 1-343): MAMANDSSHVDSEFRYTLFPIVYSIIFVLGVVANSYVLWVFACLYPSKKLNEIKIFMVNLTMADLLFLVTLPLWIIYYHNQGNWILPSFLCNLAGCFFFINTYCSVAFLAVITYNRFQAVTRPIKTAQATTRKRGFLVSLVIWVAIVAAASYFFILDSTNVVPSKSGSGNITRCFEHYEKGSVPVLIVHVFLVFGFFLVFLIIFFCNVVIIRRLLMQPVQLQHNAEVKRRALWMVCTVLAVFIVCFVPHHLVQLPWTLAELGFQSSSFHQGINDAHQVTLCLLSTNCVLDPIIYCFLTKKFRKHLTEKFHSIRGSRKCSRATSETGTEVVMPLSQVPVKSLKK
Outline: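 Washed dog platelets (2×10^7 per tube, in 0.1% BSA-PBS) incubated 10 min at room temperature with 3H-PAF and test analogs. Bound ligand separated by 1 min centrifugation through silicone oil; platelet pellet radioactivity counted by liquid scintillation.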

[3] = system: PAF-Induced Bronchoconstriction; test: PAF Induced Bronchoconstriction Assay; format: in vivo, guinea pig; details: for inhibition in vivo at 50 mg/kg: Cavia porcellus, po, 50 mg/Kg p.o., 2-hour pretreatment, read-out: Percent Inhib. of PAF-Induced Bronchoconstriction, 50 mg/Kg p.o.; for Percent Inhib. of PAF-Induced Bronchoconstriction, mg/Kg i.v.: i.v. (dose not given), 1 minute pretreatment, PAF 1.0 μg/kg i.v.
Outline: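 Male Hartley guinea pigs, urethane-anesthetized (2 g/kg i.p.), ventilated, with succinylcholine 1.2 mg/kg i.v. and propranolol 0.1 mg/kg i.v. pretreatment. Compound given i.v. 1 min or by oral gavage 2 h before i.v. PAF challenge at 1.0 μg/kg. Peak tracheal pressure rise over baseline compared with control mean gives % inhibition.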

Row | Structure (SMILES) | inhibition in vivo at 3 mg/kg [1] [%] | IC50 [2] [nM] | inhibition in vivo at 50 mg/kg [3] [%] | Percent Inhib. of PAF-Induced Bronchoconstriction, mg/Kg i.v. [3] [%]
1 | COc1cccc(C(=C/C=C/C(=O)N[C@H](C)CCCc2cccnc2)c2cccc(OC)c2)c1 [[R-(E)]-5,5-bis (3-methoxyphenyl)-N-[1-methyl-4-(3-pyridinyl)butyl]-2,4-pentadienamide] | 31 | 35 | 87 ± 8 | 87 ± 4
2 | COc1cccc(C(=C/C=C/C(=O)N[C@@H](C)CCCc2cccnc2)c2cccc(OC)c2)c1 [[S-(E)]-5,5-bis(3-methoxyphenyl)-N-[1-methyl-4-(3-pyridinyl)butyl]-2,4-pentadienamide] | 10 | 300 | 10 ± 5 | 36 ± 4
